Source: paper PMC7673371, “Real-Time Parallel Artificial Membrane Permeability Assay Based on Supramolecular Fluorescent Artificial Receptors” (Frontiers in Chemistry, 2020)
Entries after “also recorded” stand apart in the source; their conditions may differ. Each block holds one molecule with its values, some of them ahead of it.

Key:
[1] = RT-PAMPA with MDAP∙CB8 fluorescent receptor and Avanti lipid
Description: Analyte solutions were prepared at 1 mmol/L in Millipore water or cosolvents as indicated. The MDAP∙CB8 reporter pair solution contained 5 μmol/L of MDAP and 6 μmol/L of CB8 that were dissolved in Millipore water. Two lipid solutions were used, including the commercial Avanti PAMPA lipid blend I and the self-prepared 2% DOPC in dodecane. To proceed with the assay, 5 μL of the lipid solution was pipetted to the microporous filter and allowed to impregnate evenly; 300 μL of the analyte solution was transferred to the lower donor well, and 100 μL of the reporter pair solution was transferred to the upper acceptor well. The acceptor plate was combined with the donor plate after the solutions had been loaded to define the start point of the assay. Fluorescence readings were taken on a Jasco FP-8500 fluorimeter equipped with a microplate reader with an excitation wavelength at 418 nm and monitored at an emission wavelength of 449 nm.
RT-PAMPA and fluorescence titration experiments were conducted on a Jasco FP-8500 fluorimeter with an attached microplate reader. For RT-PAMPA, the analytes were prepared at 1 mmol/l, while the FARs, including MDAP•CB8 and berberine•cucurbit[7]uril (BE•CB7), were prepared at 5 μmol/l.
In the first step, 5 μl of the lipid solution (Avanti PAMPA Blend I or 2% DOPC) was loaded on the microporous bottom of the acceptor well and allowed to disperse evenly. Subsequently, 100 μl of the FAR solution was loaded in the acceptor well, and 300 μl of the analyte solution was loaded into the donor well. Immediately after the solutions were loaded, the two plates were combined with the acceptor plate on top and the donor plate at the bottom. Fluorescence intensity was recorded at 449 nm with an excitation wavelength of 418 nm for the MDAP•CB8 experiments and recorded at 500 nm with an excitation wavelength of 342 nm for the BE•CB7 experiments. For the titration experiments, 2.5 ml of the 1 μmol/l MDAP•CB8 solution was placed into a 1-cm length quartz cuvette, followed by gradual addition of the indole solution. The solution was excited at 418 nm and the fluorescence spectra were recorded upon each addition of the indole solution. The fluoresc ence decrease at 449 nm was fitted with a 1:l binding model in order to obtain the binding constants of the MDAP•CB8•indole […]
2 Blank control experiments […]
5 Calculation of permeability
The effective permeability (Pe) of an analyte was calculated with the below equation (Wohnsland and […]
logP = log {−C × ln (1 − [analyte]acceptor )}
Based on the principle of the RT-PAMPA, the concentration of analyte in the acceptor well ([analyte]acceptor) and the concentration at equilibrium ([analyte]equilibrium) were obtained with the below equations, with the knowledge of the fluorescence intensity of the acceptor well and the binding constant of the ternary MDAP•CB8•analyte complex. It should be noted that the retention of analyte in the lipid layer was not taken into account.
[analyte]acceptor = [analyte]complex + [analyte]free
= IA − IG × [G ] + IA − IG […]
[analyte] = A G × [G ] + IGA − IG […]
IA: fluorescence intensity of the acceptor well at the chosen time point; IG: initial fluorescence intensity of the acceptor well;
IGA: fluorescence intensity of the ternary complex;
[G0]: initial concentration of FAR in the acceptor well;
[A0]: initial concentration of analyte in the donor well;
VA: volume of the solution in the acceptor well;
VD: volume of the solution in the donor well;
Ka: binding constant of the ternary MDAP•CB8•analyte complex.

[2] = RT-PAMPA with BE•CB7 as FAR, Avanti PAMPA lipid layer; type: in vitro ADME; conditions: berberine∙cucurbit[7]uril reporter pair, analyte in water
[3] = not told; cited from earlier work
[4] = RT-PAMPA with MDAP∙CB8 fluorescent receptor and 2% DOPC lipid; type: in vitro ADME; conditions: RT-PAMPA conditions, 2% DOPC in dodecane
Description: with an attached microplate reader.
Subsequently, 100 μl of the
Fluorescence intensity was recorded at 449 nm
For the titration experiments,
gradual addition of the indole solution.
were recorded upon each addition of the indole solution. The fluoresc ence decrease at 449 nm was
2 Blank control experiments

[5] = 1 mmol/L analyte in donor well, MDAP∙CB8 in acceptor well, Avanti lipid, compared with absence of analyte
[6] = RT-PAMPA, fast = sharp fluorescence drop in initial several minutes, slow = response on time scale of several hours

- fluorescence response indicative of analyte permeation through the lipid layer [1, 5]: no significant fluorescence response
SMILES: NCCc1c[nH]c2ccc(O)cc12 [serotonin]

- fluorescence response indicative of effective permeation [2]: strong fluorescence response
SMILES: OC12CC3CC(CC(C3)C1)C2 [1-adamantanol]

- fluorescence response indicative of analyte permeation through the lipid layer [1, 5]: significant fluorescence responses
- permeation characteristics (fast or slow) from the permeation curves [1, 6]: slowly permeating
SMILES: Cc1c(OCC(F)(F)F)ccnc1C[S+]([O-])c1nc2ccccc2[nH]1 (stereo not shown) [lansoprazole]

SMILES: CCC(=O)Nc1ccc(Cl)c(Cl)c1 [propanil]
- fluorescence response indicative of analyte permeation through the lipid layer [1, 5]: significant fluorescence responses
- permeation characteristics (fast or slow) from the permeation curves [1, 6]: Fast permeation

- fluorescence response indicative of analyte permeation through the lipid layer [1, 5]: no significant fluorescence response
SMILES: CN(C)CCC=C1c2ccccc2COc2ccccc21 [doxepin]

- influence of organic cosolvent in donor well on permeation curves ([1]; 0.1 mmol/L in 2 and 20% ethanol, initial hour): overlapped
- fluorescence response indicative of analyte permeation through the lipid layer [1, 5]: significant fluorescence responses
- permeation characteristics (fast or slow) from the permeation curves [1, 6]: Fast permeation
SMILES: c1ccc2[nH]c(-c3cscn3)nc2c1 [thiabendazole]

- fluorescence response indicative of analyte permeation through the lipid layer [1, 5]: significant fluorescence responses
- permeation characteristics (fast or slow) from the permeation curves [1, 6]: Fast permeation
SMILES: O=c1ccc2ccccc2o1 [coumarin]

SMILES: c1ccc2[nH]ccc2c1 [indole]
- fluorescence response indicative of analyte permeation through the lipid layer [1, 5]: significant fluorescence responses
- permeation characteristics (fast or slow) from the permeation curves [1, 6]: Fast permeation
- log Pe ([1]; indole 0.010 mmol/l, time 0.15 h): –4.55
- log Pe ([1]; indole 0.010 mmol/l, time 0.30 h): –4.67
- log Pe ([1]; indole 0.010 mmol/l, time 0.45 h): –4.59
- log Pe ([1]; indole 0.010 mmol/l, time 0.58 h): –4.52
- log Pe ([1]; indole 0.010 mmol/l, time 0.73 h): –4.53
- log Pe ([1]; indole 0.010 mmol/l, time 0.87 h): –4.52
- log Pe ([1]; indole 0.010 mmol/l, time 1.43 h): –4.55
- log Pe ([1]; indole 0.010 mmol/l, time 1.85 h): –4.59
- log Pe ([1]; indole 0.1 mmol/l, time 0.15 h): –4.70
- log Pe ([1]; indole 0.1 mmol/l, time 0.30 h): –4.72
- log Pe ([1]; indole 0.1 mmol/l, time 0.45 h): –4.74
- log Pe ([1]; indole 0.1 mmol/l, time 0.58 h): –4.73
- log Pe ([1]; indole 0.1 mmol/l, time 0.73 h): –4.74
- log Pe ([1]; indole 0.1 mmol/l, time 0.87 h): –4.72
- log Pe ([1]; indole 0.1 mmol/l, time 1.43 h): –4.81
- log Pe ([1]; indole 0.1 mmol/l, time 1.85 h): –4.87
- log Pe ([1]; indole 1.0 mmol/l, time 0.15 h): –5.15
- log Pe ([1]; indole 1.0 mmol/l, time 0.30 h): –5.09
- log Pe ([1]; indole 1.0 mmol/l, time 0.45 h): –5.17
- log Pe ([1]; indole 1.0 mmol/l, time 0.58 h): –5.21
- log Pe ([1]; indole 1.0 mmol/l, time 0.73 h): –5.28
- log Pe ([1]; indole 1.0 mmol/l, time 0.87 h): –5.32
- log Pe ([1]; indole 1.0 mmol/l, time 1.43 h): –5.49
- log Pe ([1]; indole 1.0 mmol/l, time 1.85 h): –5.59

- fluorescence response indicative of analyte permeation through the lipid layer [1, 5]: no significant fluorescence response
SMILES: N[C@@H](Cc1ccccc1)C(=O)O [L-Phenylalanine]

- fluorescence response indicative of analyte permeation through the lipid layer ([1]; PAMPA): significant fluorescence responses
- permeation characteristics (fast or slow) from the permeation curves ([1]; PAMPA): slowly permeating
SMILES: NC(=O)[C@@H](N)Cc1c[nH]c2ccccc12 [L-tryptophanamide]
- permeability coefficient (logPe) [3]: −5.56

- permeation characteristics (fast or slow) from the permeation curves [1, 6]: slowly permeating
- permeation through the 2% DOPC lipid [4]: did not permeate to a significant extent
SMILES: O=c1ccc2ccc(O)cc2o1 [umbelliferone]
- fluorescence response indicative of analyte permeation through the lipid layer [1, 5]: significant fluorescence responses; also recorded: appreciable permeability

- fluorescence response indicative of analyte permeation through the lipid layer [1, 5]: no significant fluorescence response
SMILES: CN(C)CCc1c[nH]c2ccc(C[C@H]3COC(=O)N3)cc12 [zolmitriptan]
